Assay [1] deals with T1, JAK2 (Homo sapiens, UniProt O60674).
T1 construct: purchased Eurofins
Put plainly: In vitro kinase activity experiment, JAK2. It counts as biochemical. The following applies: inhibition rate of enzyme at 500 nM; measured by Eurofins. As to the method:
(§1) Buffer solution ([…], pH 7.0, 0.2 mm EDTA, 10 mM mncl2), kinase to be tested, substrate of kinase to be tested, 10 mM magnesium acetate and γ33P-ATP solution, and compounds with different concentrations were added to a reaction tube in turn, then MgATP was added to initiate the enzyme reaction process, and incubated at room temperature for 40 min. Then, the reaction was terminated with 5 μl of […], and 10 μl of the reaction solution was titrated onto the Filtermat A membrane, washed with 75 mM phosphate solution for three times, each time for 5 min., and then washed with methanol once. Finally, the Filtermat A membrane was dried and the scintillation count was carried out.

Assay [2] has as its system SET-2 cells (JAK2 V617F). Put plainly: Inhibition of cell proliferation by MTT experiment, SET-2. The format is cell-based. The note with it: Homo sapiens, SET-2; MTT, 72 h; read-out: IC50 value on cell proliferation inhibition, SET-2 (V617F). The text has this: (§2) MV4-11, MOLM-13 and SET-2 were used to determine the influence of the test compound of the present invention on the activity of cancer cells. MV4-11 and MOLM-13 were human leukemia cell lines from American Type Culture Collection (ATCC), expressing FLT3 receptor and containing FLT3-ITD mutation; and SET-2 was a primary thrombocythemia cell purchased from Chengdu Bowerston Biotechnology Co., Ltd., China, continuously expressing JAK2 receptor and containing the mutation of V617F.
(§3) MV4-11, MOLM-13 and SET-2 cells were filled in a 96-well petri dish with 100 μL IMDM as the medium, containing 10% fetal bovine serum (100 mL/bottle, purchased from Grassland Lvye Bio-Engineering Materials Co., Ltd. and cryopreserved at −20° C.), and with 10,000-15,000 cells in each well. […] In each group, 3-5 replicate wells were set and incubated in 5% CO2 at 37° C. for 72 h. At the endpoint, 20 μL MTT (5 mg/mL) was added to each well, and the cells were incubated for another 1-3 h.
(§4) After the inhibition rate of each concentration of compound on cell proliferation activity was calculated, the dose-response curve and IC50 value were fitted by Graphpad prism software according to the compound treatment concentrations and corresponding inhibition rates.

The target of assay [3] is T2, FLT3 (Homo sapiens, UniProt P36888).
T2 construct: purchased Eurofins
T2 sequence (P36888 27-993): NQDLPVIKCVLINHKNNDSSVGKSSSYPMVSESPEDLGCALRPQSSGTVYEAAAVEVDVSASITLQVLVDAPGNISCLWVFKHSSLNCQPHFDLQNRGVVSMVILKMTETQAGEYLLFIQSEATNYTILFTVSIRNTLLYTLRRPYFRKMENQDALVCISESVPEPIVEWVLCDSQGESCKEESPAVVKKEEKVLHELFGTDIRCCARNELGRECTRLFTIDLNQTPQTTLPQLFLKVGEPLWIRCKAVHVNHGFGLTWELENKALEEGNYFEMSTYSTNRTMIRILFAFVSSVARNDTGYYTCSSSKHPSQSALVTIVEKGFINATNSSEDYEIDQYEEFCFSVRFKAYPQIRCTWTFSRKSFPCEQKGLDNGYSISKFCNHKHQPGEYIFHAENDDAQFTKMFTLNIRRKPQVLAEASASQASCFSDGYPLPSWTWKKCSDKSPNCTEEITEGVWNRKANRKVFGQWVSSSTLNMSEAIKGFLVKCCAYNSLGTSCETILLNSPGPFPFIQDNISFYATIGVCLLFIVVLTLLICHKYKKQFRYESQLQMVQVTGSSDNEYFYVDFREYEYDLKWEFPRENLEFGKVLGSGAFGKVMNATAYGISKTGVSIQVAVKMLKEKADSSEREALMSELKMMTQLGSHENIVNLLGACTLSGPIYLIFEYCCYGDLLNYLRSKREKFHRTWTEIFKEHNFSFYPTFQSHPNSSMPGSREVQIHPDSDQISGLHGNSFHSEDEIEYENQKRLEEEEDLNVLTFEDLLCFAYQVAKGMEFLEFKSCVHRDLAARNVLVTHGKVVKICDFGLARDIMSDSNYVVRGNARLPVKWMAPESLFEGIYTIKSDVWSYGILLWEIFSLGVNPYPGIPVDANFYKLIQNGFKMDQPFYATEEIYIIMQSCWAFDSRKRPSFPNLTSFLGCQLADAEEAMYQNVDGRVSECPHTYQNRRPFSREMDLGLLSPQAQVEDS
Put plainly: In vitro kinase activity experiment, FLT3. It counts as biochemical. The following applies: 40 min; inhibition rate of enzyme at 500 nM; measured by Eurofins; read-out: Kinase activity @ 500 nM (%) FLT3. As to the method: as §1

The test system of assay [4] is MOLM-13 cells (FLT3-ITD-/+). Put plainly: Inhibition of cell proliferation by MTT experiment, MOLM-13. It counts as cell-based, human. The note with it: Homo sapiens, MOLM-13; MTT, 72 h; read-out: IC50 value on cell proliferation inhibition, MOLM-13 FLT3-ITD-/+.
Description: as §2, §3, §4

The subject of assay [5] is MV4-11 cells (FLT3-ITD+/+). Put plainly: Inhibition of cell proliferation by MTT experiment, MV4-11. It counts as cell-based, human. The note with it: Homo sapiens, MV4-11; MTT, 72 h; read-out: IC50 value on cell proliferation inhibition, MV4-11 FLT3-ITD+/+.
Description: as §2, §3, §4

T1 sequence (O60674 whole entry): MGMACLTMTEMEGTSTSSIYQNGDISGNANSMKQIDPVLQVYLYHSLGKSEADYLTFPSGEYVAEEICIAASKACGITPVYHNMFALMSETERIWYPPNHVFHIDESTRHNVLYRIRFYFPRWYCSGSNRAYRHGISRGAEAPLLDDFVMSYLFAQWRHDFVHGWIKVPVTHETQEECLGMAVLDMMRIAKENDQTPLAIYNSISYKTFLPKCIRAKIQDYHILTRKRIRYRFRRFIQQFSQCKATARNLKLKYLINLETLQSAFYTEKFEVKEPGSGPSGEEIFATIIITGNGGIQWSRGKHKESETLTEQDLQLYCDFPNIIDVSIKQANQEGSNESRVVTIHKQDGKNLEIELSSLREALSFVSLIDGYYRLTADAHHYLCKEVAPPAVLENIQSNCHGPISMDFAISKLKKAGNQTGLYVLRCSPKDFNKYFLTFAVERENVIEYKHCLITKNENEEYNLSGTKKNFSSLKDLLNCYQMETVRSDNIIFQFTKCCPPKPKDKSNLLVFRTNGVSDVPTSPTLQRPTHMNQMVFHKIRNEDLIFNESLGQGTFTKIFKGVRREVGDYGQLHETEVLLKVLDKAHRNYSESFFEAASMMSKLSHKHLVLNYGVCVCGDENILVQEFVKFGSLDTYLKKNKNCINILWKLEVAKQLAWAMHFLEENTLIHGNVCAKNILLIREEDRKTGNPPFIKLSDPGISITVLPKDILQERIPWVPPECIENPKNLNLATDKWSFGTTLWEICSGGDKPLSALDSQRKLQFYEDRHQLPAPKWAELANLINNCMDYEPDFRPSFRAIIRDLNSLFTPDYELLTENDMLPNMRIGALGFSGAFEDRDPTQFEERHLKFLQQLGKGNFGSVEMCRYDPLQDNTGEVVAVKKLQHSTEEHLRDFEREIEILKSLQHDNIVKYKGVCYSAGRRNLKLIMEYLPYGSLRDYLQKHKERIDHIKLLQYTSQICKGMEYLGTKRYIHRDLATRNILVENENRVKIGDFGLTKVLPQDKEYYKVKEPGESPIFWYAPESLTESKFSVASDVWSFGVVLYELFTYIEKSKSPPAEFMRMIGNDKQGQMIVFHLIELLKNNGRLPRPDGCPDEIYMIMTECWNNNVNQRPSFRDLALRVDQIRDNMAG

Take `Cc1nn(C(C)C)cc1-c1nc(Nc2ccc(N3CCN(C)CC3)c(F)c2)ncc1F` [CLJ-34]: the “Kinase activity @ 500 nM (%) JAK2” value in assay [1] stood at 93%. For the same molecule, the IC50 is 100 to 1000 nM in assay [2], 100 to 1000 nM in assay [4] and 10 to 100 nM in assay [5]. Further, the inhibition at 0.5 µM in assay [3] came to 95%.

`Cc1c(-c2nc(Nc3ccc(N4CCN(C)CC4)c(F)c3)ncc2F)cnn1C(C)C` [CLJ-35]: in assay [1], the “Kinase activity @ 500 nM (%) JAK2” value came to 92%. Besides, the IC50 in assay [2] lay in the range of 100 to 1000 nM; in assay [4], 100 to 1000 nM; in assay [5], 10 to 100 nM. Further, the inhibition at 0.5 µM in assay [3] was found to be 91%.

`CC(C)n1cc(-c2nc(Nc3ccc(N4CCC(N(C)C)CC4)c(F)c3)ncc2F)cn1` [CLJ-36, 5-fluoro-N-(3-fluoro-4-(4-dimethylaminopiperidine-1-yl)phenyl)-4-(1-isopropyl-1H-pyrazole-4-yl) pyrimidine-2-amine]: the “Kinase activity @ 500 nM (%) JAK2” value in assay [1] was 97%. In addition, the results for the IC50 in assay [2], in assay [4] and in assay [5] were 100 to 1000 nM, 10 to 100 nM and 10 to 100 nM, respectively. The inhibition at 0.5 µM in assay [3] worked out at 99%.

For `COc1cc(Nc2ncc(F)c(-c3cnn(C(C)C)c3)n2)ccc1N1CCC(N(C)C)CC1` [CLJ-37, 5-fluoro-N-(3-methoxy-4-(4-dimethylaminopiperidine-1-yl)phenyl)-4-(1-isopropyl-1H-pyrazole-4-yl) pyrimidine-2-amine], the “Kinase activity @ 500 nM (%) JAK2” value in assay [1] was found to be 98%. Also, the IC50 in assay [2] was in the range of 100 to 1000 nM; in assay [4], 100 to 1000 nM; in assay [5] it was 10 to 100 nM. Further, the inhibition at 0.5 µM in assay [3] is 97%.

`COc1cc(Nc2ncc(C)c(-c3cnn(C(C)C)c3)n2)ccc1N1CCC(N(C)C)CC1` [CLJ-39, 5-methyl-N-(3-methoxy-4-(4-dimethylaminopiperidine-1-yl)phenyl)-4-(1-isopropyl-1H-pyrazole-4-yl) pyrimidine-2-amine]: the “Kinase activity @ 500 nM (%) JAK2” value in assay [1] is reported as 94%. Also, the IC50 in assay [2] is 100 to 1000 nM; in assay [4], 100 to 1000 nM; in assay [5] it was 10 to 100 nM. Besides, the inhibition at 0.5 µM in assay [3] is 90%.

Consider `Cc1cnc(Nc2ccc(N3CCN(C(=O)CO)CC3)c(F)c2)nc1-c1cnn(C(C)C)c1` [CLJ-40, 5-methyl-N-(3-fluoro-4-(4-hydroxyacetylpiperazine-1-yl)phenyl)-4-(1-isopropyl-1H-pyrazole-4-yl) pyrimidine-2-amine], for which the “Kinase activity @ 500 nM (%) JAK2” value in assay [1] is 96%. Further, the IC50 in assay [2] is 100 to 1000 nM; in assay [4] it was 10 to 100 nM; in assay [5], 10 to 100 nM. For the same molecule, the inhibition at 0.5 µM in assay [3] stood at 94%.

For `Cc1cnc(Nc2ccc(N3CCC(N(C)C(=O)CO)CC3)c(F)c2)nc1-c1cnn(C(C)C)c1` [CLJ-41, N-(1-(2-fluoro-4-((4-(1-isopropyl-1H-pyrazol-4-yl)-5-methylpyrimidine-2-yl)amino)phenyl)piperidine-4-yl)-2-hydroxy-N-methylacetamide], the “Kinase activity @ 500 nM (%) JAK2” value in assay [1] is recorded as 102%. Further, the IC50 in assay [2] was in the range of 100 to 1000 nM; in assay [4], 100 to 1000 nM; in assay [5], 10 to 100 nM. Further, the inhibition at 0.5 µM in assay [3] was found to be 97%.

With `Cc1cnc(Nc2ccc(N3CCC(CO)CC3)c(F)c2)nc1-c1cnn(C(C)C)c1` [CLJ-42, 5-methyl-N-(3-fluoro-4-(4-hydroxymethylpiperidine-1-yl)phenyl)-4-(1-isopropyl-1H-pyrazole-4-yl) pyrimidine-2-amine], in assay [1], the “Kinase activity @ 500 nM (%) JAK2” value is reported as 100%. Further, the values for the IC50 in assay [2], in assay [4] and in assay [5] were 100 to 1000 nM, 100 to 1000 nM and 10 to 100 nM, respectively. For the same molecule, the inhibition at 0.5 µM in assay [3] amounted to 95%.

Take `Cc1cnc(Nc2ccc(N3CCC(NCCO)CC3)c(F)c2)nc1-c1cnn(C(C)C)c1` [CLJ-43, 5-methyl-N-(3-fluoro-4-(4-hydroxyethylaminopiperidine-1-yl)phenyl)-4-(1-isopropyl-1H-pyrazole-4-yl) pyrimidine-2-amine]: the “Kinase activity @ 500 nM (%) JAK2” value in assay [1] is reported as 95%. The IC50 fell in the range of 100 to 1000 nM in assay [2], 100 to 1000 nM in assay [4] and 10 to 100 nM in assay [5]. Also, in assay [3], the inhibition at 0.5 µM was found to be 94%.

Turning to `Cc1cnc(Nc2ccc(N3CCC(N(C)CCCO)CC3)c(F)c2)nc1-c1cnn(C(C)C)c1` [CLJ-45, 5-methyl-N-(3-fluoro-4-(4-N-hydroxypropyl-4-N-methylaminopiperidine-1-yl)phenyl)-4-(1-isopropyl-1H-pyrazole-4-yl) pyrimidine-2-amine], the “Kinase activity @ 500 nM (%) JAK2” value in assay [1] is given as 91%. Moreover, the IC50 lay in the range of 100 to 1000 nM in assay [2], 10 to 100 nM in assay [4] and 1 to 10 nM in assay [5]. Besides, in assay [3], the inhibition at 0.5 µM was found to be 98%.

Regarding `Cc1cnc(Nc2ccc(N3CCC(N(C)CCCCO)CC3)c(F)c2)nc1-c1cnn(C(C)C)c1` [CLJ-46, 5-methyl-N-(3-fluoro-4-(4-N-hydroxybutyl-4-N-methylaminopiperidine-1-yl)phenyl)-4-(1-isopropyl-1H-pyrazole-4-yl) pyrimidine-2-amine], the “Kinase activity @ 500 nM (%) JAK2” value in assay [1] was 102%. The IC50 in assay [2] was in the range of 100 to 1000 nM; in assay [4], 10 to 100 nM; in assay [5], 1 to 10 nM. For the same molecule, in assay [3], the inhibition at 0.5 µM was 98%.

In the case of `Cc1cnc(Nc2ccc(N3CCC(N(C)CCCCCO)CC3)c(F)c2)nc1-c1cnn(C(C)C)c1` [CLJ-47, 5-methyl-N-(3-fluoro-4-(4-N-hydroxypentyl-4-N-methylaminopiperidine-1-yl)phenyl)-4-(1-isopropyl-1H-pyrazole-4-yl) pyrimidine-2-amine], the “Kinase activity @ 500 nM (%) JAK2” value in assay [1] is given as 93%. Besides, the values for the IC50 in assay [2], in assay [4] and in assay [5] were 100 to 1000 nM, 10 to 100 nM and 1 to 10 nM, respectively. In addition, the inhibition at 0.5 µM in assay [3] amounted to 94%.

Take `CCOCCN(C)C1CCN(c2ccc(Nc3ncc(C)c(-c4cnn(C(C)C)c4)n3)cc2F)CC1` [CLJ-48, 5-methyl-N-(3-fluoro-4-(4-N-ethoxyethyl-4-N-methylaminopiperidine-1-yl)phenyl)-4-(1-isopropyl-1H-pyrazole-4-yl) pyrimidine-2-amine]: the “Kinase activity @ 500 nM (%) JAK2” value in assay [1] turned out to be 93%. In addition, the IC50 in assay [2], in assay [4] and in assay [5] was 100 to 1000 nM in each case. The inhibition at 0.5 µM in assay [3] amounted to 96%.

On to `CCCN(C)C1CCN(c2ccc(Nc3ncc(C)c(-c4cnn(C(C)C)c4)n3)cc2F)CC1` [CLJ-49, 5-methyl-N-(3-fluoro-4-(4-N-propyl-4-N-methylaminopiperidine-1-yl)phenyl)-4-(1-isopropyl-1H-pyrazole-4-yl) pyrimidine-2-amine], for which, in assay [1], the “Kinase activity @ 500 nM (%) JAK2” value amounted to 95%. Moreover, the IC50 in assay [2], in assay [4] and in assay [5] was 100 to 1000 nM in each case. In addition, the inhibition at 0.5 µM in assay [3] was 91%.
